Like-named read-outs stand apart in the source and are kept apart here.
Target: CCR8 (Homo sapiens, UniProt P51685)
Test: Tango assay (Tango-CCR8-Gal4-CHO-K1 cells, CCL1-stimulated, ONE-Glo luminescence)
[1] = Tango Assay IC50, Inhibition of CCR8 Tango cell in vitro
[2] = read-out: Tango Assay IC50, Inhibition of CCR8 Tango cell in vitro

Sequence of CCR8 (P51685 whole entry, the tested form may be a part): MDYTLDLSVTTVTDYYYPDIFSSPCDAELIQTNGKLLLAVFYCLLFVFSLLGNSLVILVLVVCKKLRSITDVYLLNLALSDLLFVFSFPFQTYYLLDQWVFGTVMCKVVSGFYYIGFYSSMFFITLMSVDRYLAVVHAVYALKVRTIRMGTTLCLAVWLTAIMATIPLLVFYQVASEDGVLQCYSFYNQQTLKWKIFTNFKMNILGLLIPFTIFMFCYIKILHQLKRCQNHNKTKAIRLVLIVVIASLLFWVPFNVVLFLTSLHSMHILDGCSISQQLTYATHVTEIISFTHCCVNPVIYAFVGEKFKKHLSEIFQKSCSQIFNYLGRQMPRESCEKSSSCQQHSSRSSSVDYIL

IC50 [1] [nM]	IC50 [2] [nM]	Compound
> 10000		Cc1ccccc1C(=O)Nc1ccc(S(=O)(=O)NC(C)C2CCCN(C(=O)CNC(=O)OC(C)(C)C)C2)c2ccccc12 (single isomer, unassigned) [Compound 155B, tert-butyl (2-(3-(1-(4-(2-methylbenzamido)naph-thalene-1-sulfonamido)ethyl)piper-idin-1-yl)-2-oxoethyl)carbamate]
85		Cc1ccccc1C(=O)Nc1ccc(S(=O)(=O)NC(C)C2CCCN(C(=O)CN)C2)c2ccccc12 (single isomer, unassigned) [Compound 156A, N-(4-(N-(1-(1-(2-ammoacetyl)piperidin-3-yl)ethyl)sulfamoyl)naph-thalen-1-yl)-2-methylbenzamide]
> 10000		Cc1ccccc1C(=O)Nc1ccc(S(=O)(=O)NC(C)C2CCCN(C(=O)CN)C2)c2ccccc12 (single isomer, unassigned) [Compound 156B, N-(4-(N-(1-(1-(2-aminoacetyl)piperidin-3-yl)ethyl)sulfamoyl)naph-thalen-1-yl)-2-methylbenzamide]
205		Cc1ccccc1C(=O)Nc1ccc(S(=O)(=O)NC(C)C2CCCN(C(=O)CN)C2)c2ccccc12 (single isomer, unassigned) [Compound 156C, N-(4-(N-(1-(1-(2-aminoacetyl)piperidin-3-yl)ethyl)sulfamoyl)naph-thalen-1-yl)-2-methylbenzamide]
> 10000		Cc1ccccc1C(=O)Nc1ccc(S(=O)(=O)NC(C)C2CCCN(C(=O)CN)C2)c2ccccc12 (single isomer, unassigned) [Compound 156D, N-(4-(N-(1-(1-(2-aminoacetyl)piperidin-3-yl)ethyl)sulfamoyl)naph-thalen-1-yl)-2-methylbenzamide]
> 10000		Cc1ccccc1C(=O)Nc1ccc(S(=O)(=O)NC(C)C2CCCN(C(=O)[C@H](C)NC(=O)OC(C)(C)C)C2)c2ccccc12 (single isomer, unassigned) [Compound 157A]
	> 10000	Cc1ccccc1C(=O)Nc1ccc(S(=O)(=O)NC(C)C2CCCN(C(=O)[C@H](C)NC(=O)OC(C)(C)C)C2)c2ccccc12 (single isomer, unassigned) [Compound 157B]
	> 10000	Cc1ccccc1C(=O)Nc1ccc(S(=O)(=O)NC(C)C2CCCN(C(=O)[C@H](C)NC(=O)OC(C)(C)C)C2)c2ccccc12 (single isomer, unassigned) [Compound 157C]
	> 10000	Cc1ccccc1C(=O)Nc1ccc(S(=O)(=O)NC(C)C2CCCN(C(=O)[C@H](C)NC(=O)OC(C)(C)C)C2)c2ccccc12 (single isomer, unassigned) [Compound 157D]
1500		Cc1ccccc1C(=O)Nc1ccc(S(=O)(=O)NC(C)C2CCCN(C(=O)[C@H](C)N)C2)c2ccccc12 (single isomer, unassigned) [Compound 158A]
685		Cc1ccccc1C(=O)Nc1ccc(S(=O)(=O)NC(C)C2CCCN(C(=O)[C@H](C)N)C2)c2ccccc12 (single isomer, unassigned) [Compound 158B]
458		Cc1ccccc1C(=O)Nc1ccc(S(=O)(=O)NC(C)C2CCCN(C(=O)[C@H](C)N)C2)c2ccccc12 (single isomer, unassigned) [Compound 158C]
1020		Cc1ccccc1C(=O)Nc1ccc(S(=O)(=O)NC(C)C2CCCN(C(=O)[C@H](C)N)C2)c2ccccc12 (single isomer, unassigned) [Compound 158D]
	24	COC1CCC([C@@H](C)NS(=O)(=O)c2ccc(NC(=O)c3ccccc3C)c(C)c2)CC1 (single isomer, unassigned) [Compound 293A, N-(4-(N-(1-(4-methoxycyclohexyl)ethyl)sulfamoyl)-2-methylphenyl)-2-methylbenzamide]
	46	COC1CCC([C@@H](C)NS(=O)(=O)c2ccc(NC(=O)c3ccccc3C)c(C)c2)CC1 (single isomer, unassigned) [Compound 293B, N-(4-(N-(1-(4-methoxycyclohexyl)ethyl)sulfamoyl)-2-methylphenyl)-2-methylbenzamide]

The remaining lines, values behind:

Compound	IC50 [1] [nM]	IC50 [2] [nM]
CC(=O)N1CCCC(C(C)NS(=O)(=O)c2ccc(NC(=O)c3ccccc3C)c3ccccc23)C1 (single isomer, unassigned) [Compound 18A, N-(4-(N-(1-(1-acetylpiperidin-3-yl)ethyl)sulfamoyl)naph-thalen-1-yl)-2-methylbenzamide]	21	
CC(=O)N1CCCC(C(C)NS(=O)(=O)c2ccc(NC(=O)c3ccccc3C)c3ccccc23)C1 (single isomer, unassigned) [Compound 18B, N-(4-(N-(1-(1-acetylpiperidin-3-yl)ethyl)sulfamoyl)naph-thalen-1-yl)-2-methylbenzamide]	100	
COC(=O)CN1CCCC(C(C)NS(=O)(=O)c2ccc(NC(=O)c3ccccc3C)c3ccccc23)C1 (single isomer, unassigned) [Compound 19A, methyl 2-(3-(1-(4-(2-methylbenzamido)naph-thalene-1-sulfonamido)ethyl)piper-idin-1-yl)acetate]	2800	
COC(=O)CN1CCCC(C(C)NS(=O)(=O)c2ccc(NC(=O)c3ccccc3C)c3ccccc23)C1 (single isomer, unassigned) [Compound 19B, methyl 2-(3-(1-(4-(2-methylbenzamido)naph-thalene-1-sulfonamido)ethyl)piper-idin-1-yl)acetate]	> 10000	
Cc1ccccc1C(=O)Nc1ccc(S(=O)(=O)NC(C)C2CCCCN2C(=O)OC(C)(C)C)c2ccccc12 (single isomer, unassigned) [Compound 67, tert-butyl 2-(1-(4-(2-methylbenzamido)naph-thalene-1-sulfonamido)ethyl)piper-idine-1-carboxylate]	283	
Cc1ccccc1C(=O)Nc1ccc(S(=O)(=O)NC(C)C2CCCCN2C(=O)OC(C)(C)C)c2ccccc12 (single isomer, unassigned) [Compound 68, tert-butyl 2-(1-(4-(2-methylbenzamido)naph-thalene-1-sulfonamido)ethyl)piper-dine-1-carboxylate]	1760	
COC(=O)CN1CCCCC1C(C)NS(=O)(=O)c1ccc(NC(=O)c2ccccc2C)c2ccccc12 (single isomer, unassigned) [Compound 70A, methyl 2-(2-(1-(4-(2-methylbenzamido)naph-thalene-1-sulfonamido)ethyl)piper-idin-1-yl)acetate]	116	
COC(=O)CN1CCCCC1C(C)NS(=O)(=O)c1ccc(NC(=O)c2ccccc2C)c2ccccc12 (single isomer, unassigned) [Compound 70B, methyl 2-(2-(1-(4-(2-methylbenzamido)naph-thalene-1-sulfonamido)ethyl)piper-idin-1-yl)acetate]	> 10000	
CCCN1CCN(c2cccc(NS(=O)(=O)c3ccc(NC(=O)c4ccccc4C)c4ccccc34)c2C)CC1 [Compound 2, 2-methyl-N-(4-(N-(2-methyl-3-(4-propylpiperazin-1-yl)phenyl)sulfamoyl)naphthalen-1-yl)benzamide]	> 10000	
CCCN1CCN(c2ccc(OC)c(NS(=O)(=O)c3ccc(NC(=O)c4ccccc4C)c4ccccc34)c2)CC1 [Compound 3, N-(4-(N-(2-methoxy-5-(4-propylpiperazin-1-yl)phenyl)sulfamoyl)naphthalen-1-yl)-2-methylbenzamide]	> 10000	
CCCN1CCCN(c2cc(NS(=O)(=O)c3ccc(NC(=O)c4ccccc4C)c4ccccc34)ccc2OC)CC1 [Compound 4, N-(4-(N-(4-methoxy-3-(4-propyl-1,4-diazepan-1-yl)phenyl)sulfamoyl)naphthalen-1-yl)-2-methylbenzamide]	1170	

Source: patent US12552753B2, “Methods and compositions for targeting Tregs using CCR8 inhibitors” (Nanjing Immunophage Biomedical Co., Ltd., priority 2020, dated 2026)
